Reference: patent US20150111771A1, “Method for Identifying Agents Capable of Inducing Respiratory Sensitization and Array and Analytical Kits for Use in the Method” (SENZAGEN AB, priority 2012, published 2015)
Where two headings read alike, the source gives them in different places.

Experiments:
[1] = tested on: respiratory sensitization; conditions: cited from earlier work
[2] = Max solubility of reference chemicals in cell medium; conditions: given for non-toxic compounds insoluble at 500 μM
[3] = tested on: MUTZ-3 cells; assay: GARD transcriptional profiling of stimulated MUTZ-3 with GARD Respiratory Prediction Signature (PCA / SVM classification); conditions: for Transcriptional profile in PCA based on GRPS, by mechanistic subdomain: 24 h stimulation, 302 GRPS transcripts (FIG. 5B, 5C)
Procedure: Cultures were maintained at 200.000 cells/ml during expansion, with a media change every 3-4 days. No differentiating steps were performed and instead, the proliferating progenitor MUTZ-3 was used for stimulations. Prior to each experiment, the cells were immunophenotyped using flow cytometry as a quality control. Cells were seeded in 6-well plates at 200.000 cells/ml. Stock solutions of each compound were prepared in either DMSO or distilled water, and were subsequently diluted so the in-well concentrations corresponded to the GARD input concentration, and in-well concentrations of DMSO were 0.1%. Cells were incubated for 24 h at 37° C. and 5% CO2. Thereafter, cells were harvested and analyzed by flow cytometry. In parallel, harvested cells were lysed in TRIzol reagent (Invitrogen) and stored at −20° C. until RNA extraction. Stimulations with chemicals were performed in three individual experiments, so that triplicates samples were obtained.
In short, a phenotypic control of MUTZ-3 was performed prior to chemical stimulation. Stimulated cells were harvested and RNA was isolated. A control of the maturity state of the cells was performed by flow cytometric analysis of CD86. Preparation of cDNA and hybridization, washing and scanning of the Human Gene 1.0 ST Arrays (Affymetrix, Santa Clara, Calif., USA) was performed, according to standardized protocols provided by the manufacturer (Affymetrix).
In short, microarray data were normalized and quality checked with the RMA algorithm, using Affymetrix Expression Console (Affymetrix). […] The biological relevance of the GRPS was explored using Ingenuity Pathways Analysis (IPA) (Ingenuity Systems, Inc. Mountain View, USA), by performing a ‘Core Analysis’. […] Biological relevance was established by exploring the Canonical Pathways associated with input molecules.
The data set was divided into a training set and a test set, consisting of 70% and 30%, of the chemical compounds, respectively. The division was performed randomly, while maintaining the proportions of sensitizers and non-sensitizers in each subset at the same ratio as in the complete data set. A test biomarker signature was identified in the training set, using ANOVA filtering and backward elimination, as described above.
In addition, the test set contained nine samples of DMSO and unstimulated controls respectively. […] Any samples included in this analysis are inappropriate to include in a test set due to the risk of over fitting.

[4] = tested on: MUTZ-3 cells; assay: Cytotoxicity by propidium iodide staining, relative viability of stimulated cells (Rv90); format: cell-based, human; conditions: concentration yielding 90% relative viability
Procedure: All chemicals were from Sigma-Aldrich, St. Louis, Mo., USA. Compounds were dissolved in either dimethyl sulfoxide (DMSO) or distilled water.

[5] = tested on: CD86 expression of MUTZ-3 cells; assay: CD86 expression of MUTZ-3 cells following chemical stimulation (flow cytometry); format: cell-based, human; conditions: 24 h at GARD input concentration; student's t-test vs corresponding vehicle, p<0.05, n=3
Procedure: FIG. 4: CD86 expression of MUTZ-3 cells following chemical stimulations. Data shown is an average of (chemical stimulations, n=3, DMSO and unstimulated cells (n=6), with error bars showing standard deviation. Statistical significance was determined by student's t-test, comparing each stimulation with its corresponding vehicle, with p<0.05 indicated by *.
Br J Haematol 2007, 138(3):281-290). […] Thereafter, cells were harvested and analyzed by flow cytometry.
All cell surface staining and washing steps were performed in PBS containing 1% BSA (w/v). Cells were incubated with specific mouse mAbs for 15 min at 4° C. The following mAbs were used for flow cytometry: FITC-conjugated CD1a (DakoCytomation, Glostrup, Denmark), CD34, CD86, and HLA-DR (BD Biosciences), PE-conjugated CD14 (DakoCytomation), CD54 and CD80 (BD Biosciences). Mouse IgG1, conjugated to FITC or PE were used as isotype controls (BD Biosciences) and PI was used to assess cell viability. […]
Prior to chemical challenge, the cells were quality controlled by measuring the cellular expression of common myeloid and dendritic cell markers using flow cytometry. […] Following chemical stimulation, the general maturity state of the cells was controlled again, as determined by the expression of the co-stimulatory marker CD86, with results presented in FIG. 4. […]

[6] = clinical observations in humans
[7] = external test set, biological triplicates, mapped into PCA space of train data (FIG. 6A)

## CCCCO [1-Butanol]
[1]
  Classification of reference chemical as respiratory sensitizer or non-sensitizer: non-sensitizers

## [Cl][Pt-2]([Cl])([Cl])([Cl])([Cl])[Cl].[NH4+].[NH4+] [Ammonium hexachloroplatinate]
[2]
  Max solubility: 35 µM
[1]; [6]
  Classification of reference chemical as respiratory sensitizer or non-sensitizer: respiratory sensitizers
[3]
  Transcriptional profile in PCA based on GRPS, by mechanistic subdomain: most extreme transcriptional changes

## N.N.O=S(=O)(O)OOS(=O)(=O)O [Ammonium persulfate]
[1]
  Classification of reference chemical as respiratory sensitizer or non-sensitizer: respiratory sensitizers
[3]
  Transcriptional profile in PCA based on GRPS, by mechanistic subdomain: most extreme transcriptional changes

## Clc1ccccc1 [Chlorobenzene]
[2]
  Max solubility: 98 µM
[1]
  Classification of reference chemical as respiratory sensitizer or non-sensitizer: non-sensitizers
[3]; [7]
  Position of external test set samples in PCA plot based on the GRPS: correctly grouped together with non-sensitizers

## O=CCCCC=O [Glutaraldehyde]
[4]
  Rv90: 10 µM
[5]
  CD86 expression following chemical stimulation: statistically significant upregulation of CD86
[1]; [6]
  Classification of reference chemical as respiratory sensitizer or non-sensitizer: respiratory sensitizers
[3]
  Transcriptional profile in PCA based on GRPS, by mechanistic subdomain: groups closely with both acid anhydrides and diisocyanates

## O=C=NCCCCCCN=C=O [Hexamethylen diisocyanate]
[2]
  Max solubility: 100 µM
[5]
  CD86 expression following chemical stimulation: statistically significant upregulation of CD86
[1]; [6]
  Classification of reference chemical as respiratory sensitizer or non-sensitizer: respiratory sensitizers

## CC(C)O [Isopropanol]
[1]; [6]
  Classification of reference chemical as respiratory sensitizer or non-sensitizer: non-sensitizers

## O=C1C=CC(=O)O1 [Maleic Anhydride]
[1]
  Classification of reference chemical as respiratory sensitizer or non-sensitizer: respiratory sensitizers

## COC(=O)c1ccccc1O [Methyl salicylate]
[1]; [6]
  Classification of reference chemical as respiratory sensitizer or non-sensitizer: non-sensitizers

## O=C=Nc1ccc(Cc2ccc(N=C=O)cc2)cc1 [Methylene diphenol diisocyanate]
[2]
  Max solubility: 50 µM
[1]; [6]
  Classification of reference chemical as respiratory sensitizer or non-sensitizer: respiratory sensitizers

## O=C1OC(=O)c2ccccc21 [Phtalic Anhydride]
[2]
  Max solubility: 200 µM
[1]; [6]
  Classification of reference chemical as respiratory sensitizer or non-sensitizer: respiratory sensitizers

## CC(O)CO (centres unmarked) [Propylene glycol]
[1]; [6]
  Classification of reference chemical as respiratory sensitizer or non-sensitizer: non-sensitizers

## O=C(O)c1ccc2c(c1)C(=O)OC2=O [Trimellitic anhydride]
[2]
  Max solubility: 150 µM
[1]; [6]
  Classification of reference chemical as respiratory sensitizer or non-sensitizer: respiratory sensitizers

## CCCCCCCC/C=C\CCCCCCCC(=O)OCCOCC(OCCO)C1OCC(OCCO)C1OCCO (centres unmarked) [Tween 80, polyoxyethylene (20) sorbitan monooleate]
[1]; [6]
  Classification of reference chemical as respiratory sensitizer or non-sensitizer: non-sensitizers

## O=S(=O)([O-])[O-].[Zn+2] [Zinc sulphate]
[1]; [6]
  Classification of reference chemical as respiratory sensitizer or non-sensitizer: non-sensitizers

## O=Cc1ccccc1 [benzaldehyde]
[3]; [7]
  Position of external test set samples in PCA plot based on the GRPS: correctly grouped together with non-sensitizers

## CCOC(=O)c1ccccc1C(=O)OCC [diethyl phtalate]
[3]; [7]
  Position of external test set samples in PCA plot based on the GRPS: correctly grouped together with non-sensitizers

## OCC(O)CO [glycerol]
[3]
  Position of external test set samples in PCA plot based on the GRPS: correctly grouped together with non-sensitizers

## CCCCCCCC(=O)O [octanoic acid]
[3]
  Position of external test set samples in PCA plot based on the GRPS: correctly grouped together with non-sensitizers

## Oc1ccccc1 [phenol]
[3]; [7]
  Position of external test set samples in PCA plot based on the GRPS: correctly grouped together with non-sensitizers

## O=C(O)c1ccccc1O [salicylic acid]
[3]
  Position of external test set samples in PCA plot based on the GRPS: correctly grouped together with non-sensitizers

## CCCCCCCCCCCCOS(=O)(=O)[O-].[Na+] [sodium dodecyl sulphate]
[3]; [7]
  Position of external test set samples in PCA plot based on the GRPS: correctly grouped together with non-sensitizers
